Common to all, as to test: DTP human tumour cell line panel, 48 h
Assay [1] deals with HS 578T breast.
Assay [2] has as its system UACC-62 melanoma.
Assay [3] has as its system OVCAR-8 ovarian.
The subject of assay [4] is CAKI-1 renal.
For assay [5], the system named is SK-MEL-28 melanoma.
For assay [6], the system named is ACHN renal.
The test system of assay [7] is MDA-MB-435.
Assay [8] relates to UACC-257 melanoma.
The subject of assay [9] is M14 melanoma.
Assay [10] deals with NCI-H23 lung.

Molecules are shown by their SMILES. Values joined by “and” are separate entries in the source; they are usually repeats but may differ in a detail not shown here. Equal entries are not always repeated.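 Cultured in 96-well plates, cells were exposed to test compound for 48 hours across five concentrations. GI50: concentration for 50% inhibition of growth. Definition used: TGI = concentration required for complete inhibition of growth.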

As to `Cc1ccc(C2=C(c3ccc(C)cc3)C3(c4ccc(C)cc4)C4C(=O)c5ccccc5C(=O)C4C2(c2ccc(C)cc2)S3=O)cc1` (stereo not given), the GI50 (as a rule, the concentration at which growth is held to half of that of the control) in [1] was above 100 µM; in assay [2] it was above 100 µM; in [3], above 100 µM; in assay [4], above 100 µM; in assay [5], 60.6 µM; in assay [6], above 100 µM. The GI50 in assay [7], in [8], in assay [9] and in assay [10] was above 100 µM throughout. In addition, the TGI in [1], in assay [2], in [3], in assay [4], in assay [5] and in assay [6] was above 100 µM in each case. Besides, the TGI in assay [7], in assay [8], in [9] and in [10] was above 100 µM each time.
Regarding `COC(=O)/C=C1/SC(N2N=C(c3cccs3)CC2c2ccc(F)cc2)=NC1=O` (stereo not given), the GI50 is 4.46 µM in [1]; 1.58 µM in assay [2]; 2.59 µM in assay [3]; 2.82 µM in [4]; 2.61 µM in assay [5]; 1.89 µM in assay [6]. Also, the GI50 in assay [7] was 2.13 µM; in [8], 2.39 µM; in assay [9], 2.25 µM; in assay [10] it was 2.33 µM. Further, the TGI (as a rule, the concentration giving total growth inhibition) in assay [1] is above 100 µM; in [2], 3.74 µM; in assay [3] it was 7.66 µM; in [4], 10.2 µM; in assay [5], 6 µM; in [6], 3.47 µM. The TGI in [7] came to 4.8 µM; in assay [8] it was 6.83 µM; in assay [9] it was 5.17 µM; in [10], 5.82 µM.
Consider `C/C(=N\NC(=S)N1CC2CCC(CC2)C1)c1cccc(C)n1`, for which the total growth inhibition concentration (TGI) was determined as 27 µM in assay [1]; 6.85 µM in assay [2]; 13 µM in [3]; 14.2 µM in assay [4]; 17.7 µM in assay [5]; 5.33 µM in assay [6]. For the same compound, the TGI in [7] turned out to be 19.6 µM; in assay [8], 9.8 µM; in assay [9], 5.55 µM; in assay [10], 19.4 µM. Besides, the GI50 is 0.229 µM in assay [3], 0.68 µM in [8] and 0.477 µM in assay [9].
Turning to `Nc1nc(N)c2c(n1)NC(c1ccccc1)C1CCc3ccccc3C1=N2` (stereo not given), the GI50 in assay [1] was 5.85 µM; in assay [2], 3.11 µM; in assay [3] it was 4.71 µM; in assay [4], 3.97 µM; in assay [5], 7.72 µM; in assay [6], 4.38 µM. Besides, the GI50 in assay [7] was 2.93 µM; in assay [8] it was 3.72 µM; in assay [9] it was 4.88 µM; in assay [10], 4.56 µM. For the same compound, the TGI in assay [1] was found to be 30 µM; in assay [2], 18.2 µM; in assay [3], 25.4 µM; in [4] it was 18.3 µM; in assay [5], 20.2 µM; in assay [6] it was 16.8 µM. Moreover, the TGI in assay [7] is 12.6 µM; in assay [8] it was 15 µM; in [9], 18 µM; in [10] it was 19.4 µM.
Take `N#Cc1c(N)nc(N)nc1N[C@H](c1nc2c(F)ccc(Cl)c2c(=O)n1-c1cccnc1)C1CC1`: the GI50 in assay [1] is 2.53 µM; in assay [2] it was 1.6 µM; in assay [3], 15.9 µM; in [4] it was 1.69 µM; in assay [5] it was 7.23 µM; in assay [6], 3.31 µM. Besides, the GI50 is 13 µM in assay [7], 8.18 µM in assay [8], 13.6 µM in assay [9] and 21.8 µM in assay [10]. Moreover, the TGI in assay [1] is 57.7 µM; in [2] it was above 100 µM; in [3] it was 44.3 µM; in assay [4] it was 26.9 µM; in [5], above 100 µM; in assay [6], above 100 µM. The TGI in assay [7] is 34.4 µM; in assay [8], above 100 µM; in assay [9] it was 41.8 µM; in [10], above 100 µM.
In the case of `C[C@]12CC[C@H]3[C@@H](C[C@@H]4SC(Nc5ccccc5)=N[C@@]45CC(O)CC[C@]35C)[C@@H]1CCC2O` (stereo not given in full), the GI50 was 2.16 µM in assay [1]; 1.83 µM in assay [2]; 3.43 µM in [3]; 2.32 µM in assay [4]; 1.68 µM in assay [5]; 1.71 µM in [6]. Further, the GI50 in [7] was 2.25 µM; in assay [8], 2.54 µM; in [9], 1.84 µM; in assay [10], 2.03 µM. In addition, the TGI in [1] worked out at 17.2 µM; in assay [2], 3.96 µM; in assay [3], 14.9 µM; in assay [4], 5.68 µM; in assay [5], 3.99 µM; in assay [6] it was 3.25 µM. In addition, the TGI in [7] amounted to 7.03 µM; in assay [8] it was 6.68 µM; in [9], 4.27 µM; in assay [10], 5.04 µM.
In the case of `Oc1cccc(/C=N/Nc2nnc(N/N=C/c3cccc(O)c3)c3ccccc23)c1`, the TGI stood at 52.9 µM in assay [1]; 30.2 µM in assay [2]; 18.1 µM in assay [3]; 83.3 µM in assay [4]; 60.2 µM in assay [5]; 40.7 µM in assay [6]. The TGI in [7] was 81 µM; in [8], above 100 µM; in assay [9], above 100 µM; in assay [10] it was 48.6 µM.
`O=[n+]1c2ccccc2n([O-])c2cc(Cl)ccc21`: the GI50 was 2.95 µM in assay [1]; 6.17 µM in [2]; 3.5 µM in [3]; 3.28 µM in assay [4]; 16.4 µM in assay [5]; 2.91 µM in assay [6]. Also, the GI50 in assay [7] was 11.3 µM; in assay [8], 5.49 µM; in assay [9] it was 10.7 µM; in [10], 4 µM. Also, the TGI in assay [1] stood at 21.7 µM; in assay [2], 23.8 µM; in assay [3], 15.4 µM; in [4], 13.1 µM; in assay [5], 97.4 µM; in [6], 9.95 µM. Besides, the TGI was determined as 23.7 µM in assay [7], 18.1 µM in [8], 29.9 µM in assay [9] and 25 µM in assay [10].
For the compound `COCCN1CCN(Cc2ccc(-c3n[nH]c4c3C(=O)c3c(NC(=O)NN5CCOCC5)cccc3-4)cc2)CC1`, the GI50 in [1] is 0.0293 µM; in [2], 0.0145 µM; in [3] it was 0.0309 µM; in assay [4], 0.0277 µM; in [5] it was 0.0246 µM; in [6] it was 0.0512 µM. Also, the GI50 in [7] is 0.0227 µM; in assay [8], 0.0336 µM; in assay [9] it was 0.0296 µM; in [10], 0.0227 µM. The TGI in assay [1] was 1.22 µM; in assay [2], 0.0462 µM; in assay [4] it was above 10 µM; in assay [5] it was 0.471 µM; in assay [6], above 10 µM; in assay [7], 0.424 µM. Besides, the TGI in [8] turned out to be 0.281 µM; in assay [9], 0.38 µM; in [10], 0.129 µM.
As for `O=C(O)CCc1c2ccc(=O)c(O)c-2oc2c(O)c(O)ccc12`, the TGI in assay [1], in [2], in assay [3], in assay [4], in [5] and in [6] was above 100 µM throughout. Also, the TGI was 31.1 µM in [7], above 100 µM in assay [8], above 100 µM in assay [9] and above 100 µM in assay [10].
As for `O=c1c(Br)cc2c(-c3ccccc3)c3cc(Br)c(O)c(Br)c3oc-2c1Br`, the TGI in assay [1], in assay [2], in [3], in assay [4], in assay [5] and in assay [6] was above 100 µM throughout. Besides, the TGI in assay [7], in assay [8], in [9] and in [10] was above 100 µM throughout.
Take `CCCCNC(=O)c1cc(NCc2cc(O)ccc2O)ccc1O`: the GI50 in assay [1] was 24.8 µM; in assay [2], 13.7 µM; in [3], 18.1 µM; in [4] it was 10.8 µM; in assay [5], 16.3 µM; in assay [6] it was 10.8 µM. Moreover, the GI50 was 17.7 µM in [7], 16.4 µM in assay [8], 19.2 µM in assay [9] and 17.1 µM in assay [10]. The TGI in [1] is above 100 µM; in [2], 27.1 µM; in assay [3], 68.8 µM; in [4] it was 23.8 µM; in assay [5], 30.3 µM; in [6], 22.7 µM. The TGI in [7] was found to be 39.5 µM; in [8] it was 32.4 µM; in assay [9] it was 43.7 µM; in assay [10], 40.5 µM.
Regarding `NC(N)=Nc1nc2ccc([N+](=O)[O-])cc2[nH]1`, the TGI in [1], in assay [2], in assay [3], in [4], in [5] and in [6] was above 100 µM in each case. Besides, the TGI in assay [7], in assay [8], in assay [9] and in assay [10] was above 100 µM each time.
As for `CCCCC(=O)N/N=C/c1c(O)ccc2ccccc12`, the GI50 is 6.54 µM in [1]; 2.3 µM in assay [2]; 2.78 µM in [3]; 2.16 µM in [5]; 1.38 µM in [6]; 4.37 µM in assay [7]. In addition, the values for the GI50 in [8], in assay [9] and in assay [10] were 3 µM, 1.82 µM and 4.14 µM, respectively. The TGI in assay [1] was above 100 µM; in assay [2], 14.2 µM; in assay [3] it was above 100 µM; in [4], 2.26 µM; in assay [5], above 52.2 µM; in [6], above 88.6 µM. In addition, the TGI is above 100 µM in [7], above 24.6 µM in assay [8], 14.6 µM in [9] and above 100 µM in [10].
For the compound `Cc1cc(C(=O)NC(CCC(=O)O)C(=O)O)sc1CCC1CNc2nc(N)[nH]c(=O)c2C1` (stereo not given), the GI50 in assay [1] was 2.13 µM and 8.89 µM; in [2] it was 0.049 µM and 0.0557 µM; in assay [3] it was < 0.0215 µM and 0.0454 µM; in assay [4] it was < 0.018 µM and 0.0234 µM; in assay [5], 0.0435 µM and 0.0643 µM; in [6], 0.0133 µM and 0.0435 µM. The GI50 is 0.0354 µM and 0.0542 µM in assay [7]; 0.0722 µM and 0.228 µM in assay [8]; < 0.0192 µM and 0.0501 µM in [9]. The total growth inhibition concentration (TGI) in assay [1], in assay [2], in [3], in assay [4], in assay [5] and in [6] was above 100 µM each time. The TGI in [7], in [8], in assay [9] and in assay [10] was above 100 µM throughout.
In the case of `C/C=C/[C@H]1O[C@@H]2C(=C[C@H]1O)C(=O)O[C@H]2C`, the GI50 in [1] is 23.3 µM; in [2], 17.6 µM; in assay [3], 24.8 µM; in assay [4] it was 5.3 µM; in assay [5], 0.786 µM; in assay [6], 7.71 µM. Moreover, the GI50 in assay [7] was 21.9 µM; in assay [8], 21.7 µM; in [9], 14.7 µM; in assay [10], 16.4 µM. In addition, the TGI in [1] was 49.8 µM; in assay [2] it was 33.5 µM; in [3], above 56.8 µM; in assay [4], 17.1 µM; in assay [5] it was 12.1 µM; in assay [6], 22.9 µM. The TGI is 43.5 µM in assay [7], 43.7 µM in [8], 30.6 µM in [9] and 44.2 µM in assay [10].
For `O=c1c(NO)c([N+](=O)[O-])cnn1-c1ccccc1`, the concentration for total growth inhibition (TGI) in [1] was 11 µM; in assay [2], 10.8 µM; in assay [3] it was 7.48 µM; in assay [4], 11.2 µM; in assay [5], 8.87 µM; in assay [6] it was 15.9 µM. Also, the TGI is 3.34 µM in [7], 13.4 µM in assay [8], 4.09 µM in assay [9] and 13.2 µM in assay [10].

These data come from PubChem BioAssay (NCI).
